# Results reported in PMC8044163, “Vitamin D and lumisterol derivatives can act on liver X receptors (LXRs)” (Scientific Reports, 2021).
# Tested on: murine dermal fibroblasts
# Assay: RNA-Seq of newborn murine dermal fibroblasts
# Format: cell-based, mouse
# Conditions: 10^−7 M, 24 h
# Procedure: All animal studies followed guidelines outlined by the NIH Guide for the Care and Use of Laboratory Animals and protocols were approved by the Institutional Animal Care and Use Committee at the NIEHS or the UAB. […] Skin samples from newborn C57BL/6 mice were collected at the NIEHS. Dermal fibroblasts were isolated from the skin of newborn mice, 1–2 day old. Briefly, we followed the protocols described previously. The skin was washed in PBS, cut into smaller pieces and incubated in 2.4 U/ml of dispase II (Roche) overnight at 4 °C. The dermis was separated from the epidermis and incubated in 0.1% collagenase (Roche) at 4 °C overnight. […] Single cell suspension was prepared by pipetting and draining through a cell strainer. After centrifugation, cell pellets were suspended in DMEM medium containing 10% charcoal-stripped fetal bovine serum (cFBS), mouse fibroblasts growth factor (FGF) and 1% antibiotic, and inoculated into tissue culture dishes (Midwest Scientific, TPP). Cells, in early passages, from different mice were pooled together to provide representative samples for experiments. Fibroblasts were cultured in Petri dishes (10 cm in diameter) in DMEM and 10% cFBS and triplicate semi-confluent cultures were treated as described.
# Triplicate cultures of murine fibroblasts were used for RNA isolation (RNAeasy Micro kit, Qiagen), the RNA samples were combined for each condition and at least 200 ng of RNA for each sample was used to create libraries for RNA sequencing by BGI Americas Corporation Service (Cambridge, MA)[67]. Quality of RNA and its concentration were determined using Agilent 2100.
# The raw sequence FASTQ files were aligned to Gencode’s GRCm38 p4 Release M11 genome using STAR version 2.5.4b (parameters used: –outReadsUnmapped Fastx; –outSAMtype BAM SortedByCoordinate; –outSAMattributes All; –outFilterIntronMotifs RemoveNoncanonicalUnannotated)[69]. The abundance of transcripts was calculated from the alignments using Cufflinks version 2.2.1 (parameters used: –G; –L; –library-type fr-firststrand). Samples were merged using default parameters with Cuffmerge[70],[71]. The differential expression was calculated using Cuffdiff’s default parameters. The raw data have been deposited at the NCBI GEO (GSE145818).
smiles,measurement,setting,value
"C=C1C(=CC=C2CCCC3(C)C2CCC3C(C)(O)CC(O)CC(C)C)CC(O)CC1O (stereo not shown) [1,20,23(OH)3D3]",Adh7 expression level,,1.313
same,Adh7 log2(fold_change) vs control,,2.36
same,Aqp11 expression level,,0.9394
same,Aqp11 log2(fold_change) vs control,,2.077
same,Arid3b expression level,,0.6082
same,Arid3b log2(fold_change) vs control,,-2.478
same,Bicd1 expression level,,0.7058
same,Bicd1 log2(fold_change) vs control,,-1.592
same,Btc expression level,,1.117
same,Btc log2(fold_change) vs control,,2.211
same,Car9 expression level,,2.818
same,Car9 log2(fold_change) vs control,,-1.732
same,Cbs expression level,,0.2989
same,Cbs log2(fold_change) vs control,,-2.697
same,Ccl4 expression level,,0.3377
same,Ccl4 log2(fold_change) vs control,,-1.322
same,Cd68 expression level,,3.541
same,Cd68 log2(fold_change) vs control,,1.639
same,Cd200 expression level,,0.5777
same,Cd200 log2(fold_change) vs control,,-1.286
same,Cherp expression level,,32.7784
same,Cherp log2(fold_change) vs control,,-2.489
same,Clec2g expression level,,0
same,Clec2g log2(fold_change) vs control,,-inf
same,Cnnm4 expression level,,4.2236
same,Cnnm4 log2(fold_change) vs control,,-3.566
same,Cox15 expression level,,15.6597
same,Cox15 log2(fold_change) vs control,,1.429
same,Cpa2 expression level,,0.3128
same,Cpa2 log2(fold_change) vs control,,-2.322
same,Ctrl expression level,,0.34
same,Ctrl log2(fold_change) vs control,,-1.578
same,Dcun1d1 expression level,,4.162
same,Dcun1d1 log2(fold_change) vs control,,-1.661
same,Defb42 expression level,,0.2203
same,Defb42 log2(fold_change) vs control,,-2.046
same,Dtx1 expression level,,0.142
same,Dtx1 log2(fold_change) vs control,,-3.544
same,Ehf expression level,,0.2985
same,Ehf log2(fold_change) vs control,,-1.4739
same,Ercc2 expression level,,13.9366
same,Ercc2 log2(fold_change) vs control,,-3.6
same,Erh expression level,,2.618
same,Erh log2(fold_change) vs control,,-1.258
same,Fmnl1 expression level,,0.2192
same,Fmnl1 log2(fold_change) vs control,,-2.084
same,Gys2 expression level,,0
same,Gys2 log2(fold_change) vs control,,-inf
same,Hist1h2ab expression level,,1.43
same,Hist1h2ab log2(fold_change) vs control,,2.322
same,Hist1h2bg expression level,,0
same,Hist1h2bg log2(fold_change) vs control,,-inf
same,Hist1h2bh expression level,,0
same,Hist1h2bh log2(fold_change) vs control,,-inf
same,Hist1h4c expression level,,0.4025
same,Hist1h4c log2(fold_change) vs control,,-1
same,Isl1 expression level,,0.3246
same,Isl1 log2(fold_change) vs control,,-1.301
same,Krt19 expression level,,10.3867
same,Krt19 log2(fold_change) vs control,,1.043
same,Larp1b expression level,,6.304
same,Lhx6 expression level,,2.879
same,Lhx6 log2(fold_change) vs control,,-2.012
same,Lsm5 expression level,,1.269
same,Lsm5 log2(fold_change) vs control,,-1.065
same,M1ap expression level,,2.14
same,M1ap log2(fold_change) vs control,,1.796
same,Med9os expression level,,0.7829
same,Med9os log2(fold_change) vs control,,-1.4
same,Nckipsd expression level,,23.2533
same,Nckipsd log2(fold_change) vs control,,2.486
same,Nr3c2 expression level,,0.0668
same,Nr3c2 log2(fold_change) vs control,,-4.037
same,Nr6a1 expression level,,0.2068
same,Nr6a1 log2(fold_change) vs control,,-3.152
same,Ntrk3 expression level,,0.4025
same,Ntrk3 log2(fold_change) vs control,,-2.2019
same,Parvg expression level,,0.1595
same,Parvg log2(fold_change) vs control,,-3.209
same,Pde4dip expression level,,24.1833
same,Pde4dip log2(fold_change) vs control,,-7.338
same,Psd4 expression level,,0.1018
same,Psd4 log2(fold_change) vs control,,-3.94
same,Ptpa expression level,,214.561
same,Ptpa log2(fold_change) vs control,,1.701
same,Ptpn6 expression level,,3.903
same,Ptpn6 log2(fold_change) vs control,,-1.613
same,Rnu3a expression level,,0
same,Rnu3a log2(fold_change) vs control,,-inf
same,Rpph1 expression level,,0.6553
same,Rpph1 log2(fold_change) vs control,,-1
same,Rsad1 expression level,,1.419
same,Rsad1 log2(fold_change) vs control,,-1.14
same,Saa1 expression level,,0.1901
same,Saa1 log2(fold_change) vs control,,-2.322
same,Samd12 expression level,,0.2728
same,Samd12 log2(fold_change) vs control,,-3.717
same,Scn8a expression level,,0.1998
same,Scn8a log2(fold_change) vs control,,-2
same,Sgca expression level,,0.5689
same,Sgca log2(fold_change) vs control,,-1.112
same,Slc15a4 expression level,,13.3996
same,Slc15a4 log2(fold_change) vs control,,-2.086
same,Slc16a5 expression level,,0.07215
same,Slc16a5 log2(fold_change) vs control,,-3.671
same,Snhg9 expression level,,3.722
same,Snhg9 log2(fold_change) vs control,,-2.322
same,St7 expression level,,24.6198
same,St7 log2(fold_change) vs control,,-1.48
same,Stmn1 expression level,,5.272
same,Stmn1 log2(fold_change) vs control,,1.77
same,Susd1 expression level,,2.296
same,Susd1 log2(fold_change) vs control,,1.732
same,Syt8 expression level,,0.5148
same,Syt8 log2(fold_change) vs control,,-2.627
same,Syt12 expression level,,0.9828
same,Syt12 log2(fold_change) vs control,,-2.055
same,Tldc2 expression level,,0
same,Tldc2 log2(fold_change) vs control,,-inf
same,Tnnc2 expression level,,0.3105
same,Tnnc2 log2(fold_change) vs control,,-1.361
same,Unc5c expression level,,0.4569
same,Unc5c log2(fold_change) vs control,,-1.248
same,Wdr17 expression level,,0.2366
same,Wdr17 log2(fold_change) vs control,,-3.241
same,Zbtb18 expression level,,4.229
same,Zbtb18 log2(fold_change) vs control,,-3.388
same,Zfp618 expression level,,1.3488
same,Zfp618 log2(fold_change) vs control,,-1.817
same,"number of genes downregulated, FC ≥ 2",,520
same,"number of genes upregulated, FC ≥ 2",,531
same,number of genes solely downregulated,FC ≥ 2,113 (10.7%)
same,number of genes solely upregulated,FC ≥ 2,256 (17%)
